≈ marks a conversion by molar mass, not a printed value. Like-named read-outs stand apart in the source and are kept apart here.
Assays:
[1] = biological target: T1, microsomal Δ-9 fatty acid desaturase (Saccharomyces cerevisiae, UniProt P21147); test: Inhibition of Δ-9 fatty acid desaturase (desaturation of 14C-palmitoyl-CoA to 14C-palmitoleic acid); conditions: I50, concentration inhibiting production of palmitoleic acid by 50%; yeast microsomes, 30° C., 5 min
T1 sequence (P21147 1-510): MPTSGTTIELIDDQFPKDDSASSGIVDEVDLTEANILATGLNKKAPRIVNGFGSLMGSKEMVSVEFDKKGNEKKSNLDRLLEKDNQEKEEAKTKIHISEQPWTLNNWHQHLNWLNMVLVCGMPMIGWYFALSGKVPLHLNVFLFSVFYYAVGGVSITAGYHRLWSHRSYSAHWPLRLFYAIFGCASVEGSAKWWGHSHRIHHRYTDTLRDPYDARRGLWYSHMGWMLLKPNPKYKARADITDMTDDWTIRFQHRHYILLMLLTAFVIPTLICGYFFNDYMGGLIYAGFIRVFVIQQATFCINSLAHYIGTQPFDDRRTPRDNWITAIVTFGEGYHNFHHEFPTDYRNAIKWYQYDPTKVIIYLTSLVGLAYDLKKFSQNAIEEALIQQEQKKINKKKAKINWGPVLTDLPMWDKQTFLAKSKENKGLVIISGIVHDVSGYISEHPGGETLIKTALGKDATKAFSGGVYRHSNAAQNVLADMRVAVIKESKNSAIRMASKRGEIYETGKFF

[2] = test system: Colletotrichum lagenarium (COLLLA); test: Activity towards plant pathogenic fungi, growth inhibition in microtiter plates; assay type: cell-based; conditions: Colletotrichum orbiculare, 72 h, read-out: EC50 COLLLA
[3] = test system: Pyricularia oryzae (PYRIOR); test: microbe, parasite or virus in culture; assay type: cell-based; conditions: 72 h, read-out: EC50 PYRIOR
Candida albicans = test: microbe, parasite or virus in culture; assay type: cell-based
[4] = 50% inhibition of growth, 25° C., NepheloStar plate reader

Row | Structure (SMILES) | IC50 [1] [nM] | EC50 [2, 4] [µg/mL] | EC50 [3] [µg/mL] | also measured
1 | CCCCCCCC#CCn1nc(-c2ccc(Cl)cn2)ccc1=O | 78.5 | – | – | –
2 | CCC#CCn1nc(-c2ccc(Br)cn2)ccc1=O | < 123 | – | – | –
3 | CCCCOCC#CCn1nc(-c2ccc(Cl)cn2)ccc1=O | 27.1 | – | – | –
4 | CCCCOCCC#CCn1nc(-c2ccc(Cl)cn2)ccc1=O | 52 | – | – | –
5 | CCCOCCCC#CCn1nc(-c2ccc(Cl)cn2)ccc1=O | 28.9 | – | – | –
6 | CCCOCCOCC#CCn1nc(-c2ccc(Cl)cn2)ccc1=O | 108 | – | – | –
7 | C=CC#CCn1nc(-c2ccc(Cl)cn2)ccc1=O | 58.9 | – | – | –
8 | CCC#CCn1nc(-c2ncc(Br)cn2)ccc1=O | 3790 | – | – | –
9 | CCCCCCCC#CCn1nc(-c2ncc(Br)cn2)ccc1=O | 87.3 | – | – | –
10 | CCCCCCOCC#CCn1nc(-c2ncc(Br)cn2)ccc1=O | 39.5 | – | – | –
11 | CCC#CCn1nc(-c2ccc(C(F)(F)F)cn2)ccc1=O | – | 0.758 (≈ 2.47 µM) | 0.674 (≈ 2.19 µM) | –
12 | CCC#CCN1N=C(c2cc(Cl)ccn2)CCC1=O | – | 5.75 (≈ 20.9 µM) | 5.52 (≈ 20 µM) | –
13 | CCC#CCN1N=C(c2ccc(Cl)cn2)CCC1=O | – | 0.194 (≈ 0.704 µM) | 0.021 (≈ 0.0762 µM) | –
14 | CCC#CCN1N=C(c2ccc(Cl)c(Cl)n2)CCC1=O | – | 0.036 (≈ 0.116 µM) | 0.031 (≈ 0.0999 µM) | –
15 | CCC#CCn1nc(-c2ccc(F)c(F)n2)ccc1=O | – | 0.181 (≈ 0.658 µM) | 0.163 (≈ 0.592 µM) | –
16 | CCC#CCn1nc(-c2ccc(Cl)cn2)ccc1=O [drawing 70] | 121 | – | – | –
17 | CCCCCOCC#CCn1nc(-c2ccc(Cl)cn2)ccc1=O [drawing 72] | 23.1 | – | – | –
18 | CCCCCCCOCC#CCn1nc(-c2ccc(Cl)cn2)ccc1=O [drawing 76] | 45.5 | – | – | –
19 | CCCCOCCOCC#CCn1nc(-c2ccc(Cl)cn2)ccc1=O [drawing 77] | 176 | – | – | –
20 | CCC(C)CCOCC#CCn1nc(-c2ccc(Cl)cn2)ccc1=O (stereo not shown) [drawing 79] | 422 | – | – | –
21 | CCCCCCCOCC#CCn1nc(-c2ccc(Cl)cn2)ccc1=O [drawing 80] | 72.2 | – | – | –
22 | O=c1ccc(-c2ccc(Cl)cn2)nn1CC#CC1CC1 [drawing 82] | 472 | – | – | –
23 | CCC#CCN1N=C(c2cccc(Cl)n2)CCC1=O [drawing 83] | > 145000 | – | – | –
24 | CCC#CCn1nc(-c2cccc(Cl)n2)ccc1=O [drawing 84] | 61400 | – | – | –
25 | CCC#CCn1nc(-c2ccc(Cl)c(Cl)n2)ccc1=O [drawing 85] | 263 | – | – | –

Row | Structure (SMILES) | IC50 [1] [nM] | EC50 [2, 4] [µg/mL] | EC50 [3] [µg/mL] | also measured
26 | CCC#CCN1N=C(c2ncccc2Cl)CCC1=O [drawing 86] | > 145000 | – | – | –
27 | CCC#CCn1nc(-c2ncccc2Cl)ccc1=O [drawing 87] | > 146000 | – | – | –
28 | CCC#CCN1N=C(c2ncc(Cl)cc2Cl)CCC1=O [drawing 88] | > 129000 | – | – | –
29 | CCC#CCn1nc(-c2ncc(Cl)cc2Cl)ccc1=O [drawing 89] | > 130000 | – | – | –
30 | CC(C)(C)C#C/C=C/Cn1nc(-c2ccc(Cl)cn2)ccc1=O [drawing 90] | > 122000 | – | – | –
31 | CCC#CCN1N=C(c2nc(Cl)c(Cl)cc2Cl)CCC1=O [drawing 91] | > 116000 | – | – | –
32 | CCC#CCn1nc(-c2ccc(Cl)c(F)n2)ccc1=O [drawing 92] | 99.4 | – | – | –
33 | CCC#CCn1nc(-c2ccc(Cl)cn2)ccc1=O [drawing 96] | – | 0.113 (≈ 0.413 µM) | 0.0474 (≈ 0.173 µM) | –
34 | CCCCCOCC#CCn1nc(-c2ccc(Cl)cn2)ccc1=O [drawing 98] | – | 0.007 (≈ 0.0202 µM) | 0.192 (≈ 0.555 µM) | –
35 | CCCCOCCOCC#CCn1nc(-c2ccc(Cl)cn2)ccc1=O [drawing 99] | – | 0.033 (≈ 0.0878 µM) | 0.05 (≈ 0.133 µM) | –
36 | CCC(C)CCOCC#CCn1nc(-c2ccc(Cl)cn2)ccc1=O (stereo not shown) [drawing 100] | – | 1.16 (≈ 3.22 µM) | 0.284 (≈ 0.789 µM) | –
37 | O=c1ccc(-c2ccc(Cl)cn2)nn1CC#CC1CC1 [drawing 101] | – | 0.092 (≈ 0.322 µM) | 0.062 (≈ 0.217 µM) | –
38 | CCC#CCN1N=C(c2cccc(Cl)n2)CCC1=O [drawing 103] | – | 3.4 (≈ 12.3 µM) | 1.01 (≈ 3.66 µM) | –
39 | CCC#CCn1nc(-c2cccc(Cl)n2)ccc1=O [drawing 105] | – | 1 (≈ 3.65 µM) | 1.4 (≈ 5.11 µM) | –
40 | CCC#CCn1nc(-c2ccc(Cl)c(Cl)n2)ccc1=O [drawing 106] | – | 0.0537 (≈ 0.174 µM) | 0.0371 (≈ 0.12 µM) | –
41 | CCC#CCN1N=C(c2ncccc2Cl)CCC1=O [drawing 108] | – | > 40 | 33 (≈ 120 µM) | –
42 | CCC#CCn1nc(-c2ncccc2Cl)ccc1=O [drawing 109] | – | > 40 | > 40 | –
43 | CCC#CCN1N=C(c2ncc(Cl)cc2Cl)CCC1=O [drawing 110] | – | 8 (≈ 25.8 µM) | 3.47 (≈ 11.2 µM) | –
44 | CCC#CCn1nc(-c2ncc(Cl)cc2Cl)ccc1=O [drawing 111] | – | 13.6 (≈ 44.1 µM) | 4.42 (≈ 14.3 µM) | –
45 | CC(C)(C)C#C/C=C/Cn1nc(-c2ccc(Cl)cn2)ccc1=O [drawing 112] | – | > 40 | 8.11 (≈ 24.7 µM) | –
46 | CCC#CCN1N=C(c2nc(Cl)c(Cl)cc2Cl)CCC1=O [drawing 113] | – | – | 5.75 (≈ 16.7 µM) | EC50 [2]: 8.71 µg/mL (≈ 25.3 µM)
47 | CCC#CCn1nc(-c2ccc(Cl)c(F)n2)ccc1=O [drawing 114] | – | 0.048 (≈ 0.165 µM) | 0.0236 (≈ 0.0809 µM) | –
48 | CCC#CCn1nc(-c2ccc(Cl)cn2)ccc1=O [drawing 116] | – | – | – | EC50 (Candida albicans): 0.091 µg/mL (≈ 0.332 µM)
49 | CCCCCOCC#CCn1nc(-c2ccc(Cl)cn2)ccc1=O [drawing 117] | – | – | – | EC50 (Candida albicans; Candida albicans, 48 h): 0.176 µg/mL (≈ 0.509 µM)
50 | CCC#CCn1nc(-c2ccc(Cl)cn2)ccc1=O [drawing 118] | – | – | – | EC50 (Candida albicans): 0.210 µg/mL (≈ 0.767 µM)

Reference: US8426412B2, “2-alkynyl-6-pyridin-2-yl-pyridazinones, 2-alkynyl-6-pyridin-2-yl-dihydropyridazinones, 2-alkynyl-6-pyrimidin-2-yl-pyridazinones and 2-alkynyl-6-pyrimidin-2-yl-dihydropyridazinones and their use as fungicides” (Dow AgroSciences, LLC., priority 2008, dated 2013)
